Patent US10730889B2, “Amido spirocyclic amide and sulfonamide derivatives” (Forma TM, LLC, priority 2012, dated 2020)
Where two headings read alike, the source gives them in different places.

Test system: A2780 cells
Assay: In-vitro cell proliferation assay (SRB, 72 hours)
Assay type: cell-based
Conditions: Homo sapiens, read-out: Cell Proliferation (IC50)
[1] = A2780, 72 h, A2780 cells, 72 hours, SRB

Row | SMILES | IC50 [1] [nM] | further results
1 | O=C(CN1CCOCC1)N1CCC2(CC1)CC2CNC(=O)N1Cc2ccncc2C1 (stereo not shown) [Example 198, N-[[6-(2-morpholinoacetyl)-6-azaspiro[2.5]octan-2-yl]methyl]-1,3-dihydropyrrolo[3,4-c]pyridine-2-carboxamide] | 61.8 | –
2 | CC(C)(C)OC(=O)N1CCC2(CC1)CC(CNC(=O)N1Cc3ccncc3C1)C2 [Example 200, tert-butyl 2-[(1,3-dihydropyrrolo[3,4-c]pyridine-2-carbonylamino)methyl]-7-azaspiro[3.5]nonane-7-carboxylate] | 24.7 | –
3 | O=C(Cc1cc(F)cc(F)c1)N1CCC2(CC1)CC2CNC(=O)N1Cc2ccncc2C1 (stereo not shown) [Example 201, N-[[6-[2-(3,5-difluorophenyl)acetyl]-6-azaspiro[2.5]octan-2-yl]methyl]-1,3-dihydropyrrolo[3,4-c]pyridine-2-carboxamide] | 27.9 | –
4 | O=C(Cc1cccc(C(F)(F)F)c1)N1CCC2(CC1)CC2CNC(=O)N1Cc2ccncc2C1 (stereo not shown) [Example 202, N-[[6-[2-[3-(trifluoromethyl]phenyl]acetyl]-6-azaspiro[2.5]octan-2-yl]methyl]-1,3-dihydropyrrolo[3,4-c]pyridine-2-carboxamide] | 28.2 | –
5 | CC(C)(C)NC(=O)N1CCC2(CC1)CC2CNC(=O)c1cc2cnccc2[nH]1 (stereo not shown) [Example 203, N-[[6-(tert-butylcarbamoyl)-6-azaspiro[2.5]octan-2-yl]methyl]-1H-pyrrolo[3,2-c]pyridine-2-carboxamide] | 2000 | –
6 | COC(=O)C(C)(C)OC(=O)N1CCC2(CC1)CC2CNC(=O)c1cc2ccncc2o1 (stereo not shown) [Example 205, (2-methoxy-1,1-dimethyl-2-oxo-ethyl) 2-[(furo[2,3-c]pyridine-2-carbonylamino)methyl]-6-azaspiro[2.5]octane-6-carboxylate] | 130 | –
7 | N#Cc1cccc(CC(=O)N2CCC3(CC2)CC3CNC(=O)c2cc3cnccc3[nH]2)c1 (stereo not shown) [Example 206, N-[[6-[2-(3-cyanophenyl)acetyl]-6-azaspiro[2.5]octan-2-yl]methyl]-1H-pyrrolo[3,2-c]pyridine-2-carboxamide] | 2000 | –
8 | N#Cc1ccc(CC(=O)N2CCC3(CC2)CC3CNC(=O)N2Cc3ccncc3C2)cc1 (stereo not shown) [Example 207, N-[[6-[2-(4-cyanophenyl)acetyl]-6-azaspiro[2.5]octan-2-yl]methyl]-1,3-dihydropyrrolo[3,4-c]pyridine-2-carboxamide] | – | IC50 (A2780 cells, 72 hours, SRB): 136 nM
9 | O=C(NCC1CC12CCN(C(=O)Nc1ccccc1)CC2)N1Cc2ccncc2C1 (stereo not shown) [Example 208, N-[[6-(phenylcarbamoyl)-6-azaspiro[2.5]octan-2-yl]methyl]-1,3-dihydropyrrolo[3,4-c]pyridine-2-carboxamide] | 26.1 | –
10 | O=C(NCc1ccccc1)N1CCC2(CC1)CC2CNC(=O)N1Cc2ccncc2C1 (stereo not shown) [Example 210, N-[[6-(benzylcarbamoyl)-6-azaspiro[2.5]octan-2-yl]methyl]-1,3-dihydropyrrolo[3,4-c]pyridine-2-carboxamide] | 316 | –
11 | O=C(NCC1CC12CCN(S(=O)(=O)Cc1ccccc1)CC2)N1Cc2ccncc2C1 (stereo not shown) [Example 211, N-[(6-benzylsulfonyl-6-azaspiro[2.5]octan-2-yl)methyl]-1,3-dihydropyrrolo[3,4-c]pyridine-2-carboxamide] | 131 | –
12 | CC(C)(CO)OC(=O)N1CCC2(CC1)CC2CNC(=O)c1cc2ccncc2o1 (stereo not shown) [Example 215, (2-hydroxy-1,1-dimethyl-ethyl) 2-[(furo[2,3-c]pyridine-2-carbonylamino)methyl]-6-azaspiro[2.5]octane-6-carboxylate] | 65.8 | –
13 | N#Cc1ccc(CC(=O)N2CCC3(CC2)CC3CNC(=O)c2cc3cnccc3[nH]2)cc1 (stereo not shown) [Example 216, N-[[6-[2-(4-cyanophenyl)acetyl]-6-azaspiro[2.5]octan-2-yl]methyl]-1H-pyrrolo[3,2-c]pyridine-2-carboxamide] | 1340 | –
14 | Cn1cc(C(=O)N2CCC3(CC2)CC3CNC(=O)N2Cc3ccncc3C2)cn1 (stereo not shown) [Example 221, N-[[6-(1-methylpyrazole-4-carbonyl)-6-azaspiro[2.5]octan-2-yl]methyl]-1,3-dihydropyrrolo[3,4-c]pyridine-2-carboxamide] | 25.4 | –
15 | CCn1nc(C)c(C(=O)N2CCC3(CC2)CC3CNC(=O)c2cc3c(o2)C=NCC3)c1C (stereo not shown) [Example 222, N-[[6-(1-isopropyl-3,5-dimethyl-pyrazole-4-carbonyl)-6-azaspiro[2.5]octan-2-y]methyl]furo[2,3-c]pyridine-2-carboxamide] | 11.7 | –
16 | Cc1nn(-c2ccc(F)cc2)c(C)c1C(=O)N1CCC2(CC1)CC2CNC(=O)c1cc2ccncc2o1 (stereo not shown) [Example 223, N-[[6-[1-(4-fluorophenyl)-3,5-dimethyl-pyrazole-4-carbonyl]-6-azaspiro[2.5]octan-2-yl]methyl]furo[2,3-c]pyridine-2-carboxamide] | 1.92 | –
17 | CC1(OC(=O)N2CCC3(CC2)CC3CNC(=O)N2Cc3ccncc3C2)CCC1 (stereo not shown) [Example 228, (1-methylcyclobutyl) 2-[(1,3-dihydropyrrolo[3,4-c]pyridine-2-carbonylamino)methyl]-6-azaspiro[2.5]octane-6-carboxylate] | – | IC50 (A2780, 72 h): 4.74 nM
18 | O=C(CCN1CCOCC1)N1CCC2(CC1)CC2CNC(=O)N1Cc2ccncc2C1 (stereo not shown) [Example 229, N-[[6-(3-morpholinopropanoyl)-6-azaspiro[2.5]octan-2-yl)methyl]-1,3-dihydropyrrolo[3,4-c]pyridine-2-carboxamide] | 18.4 | –
19 | O=C(NCC1CC12CCN(C(=O)C(F)(F)c1ccccc1)CC2)N1Cc2ccncc2C1 (stereo not shown) [Example 230, N-[[6-(2,2-difluoro-2-phenyl-acetyl)-6-azaspiro[2.5]octan-2-yl]methyl]-1,3-dihydropyrrolo[3,4-c]pyridine-2-carboxamide] | 29.9 | –
20 | Cc1cccnc1C(=O)N1CCC2(CC1)CC2CNC(=O)c1cc2ccncc2o1 (stereo not shown) [Example 231, N-[[6-(3-methylpyridine-2-carbonyl)-6-azaspiro[2.5]octan-2-yl]methyl]furo[2,3-c]pyridine-2-carboxamide] | 516 | –

Continued, in another order:

Row | IC50 [1] [nM] | SMILES | further results
21 | 207 | Cc1cnccc1C(=O)N1CCC2(CC1)CC2CNC(=O)c1cc2ccncc2o1 (stereo not shown) [Example 232, N-[[6-(3-methylpyridine-4-carbonyl)-6-azaspiro[2.5]octan-2-yl]methyl]furo[2,3-c]pyridine-2-carboxamide] | –
22 | 288 | Cc1ccc(C(=O)N2CCC3(CC2)CC3CNC(=O)c2cc3ccncc3o2)cn1 (stereo not shown) [Example 233, N-[[6-(6-methylpyridine-3-carbonyl)-6-azaspiro[2.5]octan-2-yl]methyl]furo[2,3-c]pyridine-2-carboxamide] | –
23 | 1560 | Cc1ccnc(C(=O)N2CCC3(CC2)CC3CNC(=O)c2cc3ccncc3o2)c1 (stereo not shown) [Example 235, N-[[6-(4-methylpyridine-2-carbonyl)-6-azaspiro[2.5]octan-2-yl]methyl]furo[2,3-c]pyridine-2-carboxamide] | –
24 | 47.3 | O=C(NCC1CC12CCN(C(=O)c1cccc3[nH]cnc13)CC2)c1cc2ccncc2o1 (stereo not shown) [Example 236, N-[[6-(1H-benzimidazole-4-carbonyl)-6-azaspiro[2.5]octan-2-yl]methyl]furo[2,3-c]pyridine-2-carboxamide] | –
25 | 166 | O=C(NCC1CC12CCN(C(=O)c1cc3cccn3cn1)CC2)c1cc2ccncc2o1 (stereo not shown) [Example 237, N-[[6-(pyrrolo[1,2-c]pyrimidine-3-carbonyl)-6-azaspiro[2.5]octan-2-yl]methyl]furo[2,3-c]pyridine-2-carboxamide] | –
26 | 910 | O=C(NCC1CC12CCN(C(=O)c1ccc3[nH]nnc3c1)CC2)c1cc2ccncc2o1 (stereo not shown) [Example 238, N-[[6-(1H-benzotriazole-5-carbonyl)-6-azaspiro[2.5]octan-2-yl]methyl]furo[2,3-c]pyridine-2-carboxamide] | –
27 | 29.7 | O=C(NCC1CC12CCN(C(=O)c1ccnc3[nH]ccc13)CC2)c1cc2ccncc2o1 (stereo not shown) [Example 239, N-[[6-(1H-pyrrolo[2,3-b]pyridine-4-carbonyl)-6-azaspiro[2.5]octan-2-yl]methyl]furo[2,3-c]pyridine-2-carboxamide] | –
28 | 18.7 | O=C(NCC1CC12CCN(C(=O)c1cccc3[nH]ncc13)CC2)c1cc2ccncc2o1 (stereo not shown) [Example 240, N-[[6-(1H-indazole-4-carbonyl)-6-azaspiro[2.5]octan-2-yl]methyl]furo[2,3-c]pyridine-2-carboxamide] | –
29 | 70.2 | O=C(NCC1CC12CCN(C(=O)c1ccc3[nH]cnc3c1)CC2)c1cc2ccncc2o1 (stereo not shown) [Example 241, N-[[6-(1H-benzimidazole-5-carbonyl)-6-azaspiro[2.5]octan-2-yl]methyl]furo[2,3-c]pyridine-2-carboxamide] | –
30 | 713 | N#Cc1ccc(C(=O)N2CCC3(CC2)CC3CNC(=O)c2cc3ccncc3o2)cc1 (stereo not shown) [Example 242, N-[[6-(4-cyanobenzoyl)-6-azaspiro[2.5]octan-2-yl]methyl]furo[2,3-c]pyridine-2-carboxamide] | –
31 | 434 | N#Cc1cccc(C(=O)N2CCC3(CC2)CC3CNC(=O)c2cc3ccncc3o2)c1 (stereo not shown) [Example 243, N-[[6-(3-cyanobenzoyl)-6-azaspiro[2.5]octan-2-yl]methyl]furo[2,3-c]pyridine-2-carboxamide] | –
32 | 12.6 | O=C(NCC1CC12CCN(C(=O)c1ccc(CN3CCOCC3)cc1)CC2)c1cc2ccncc2o1 (stereo not shown) [Example 245, N-[[6-[4-(morpholinomcthyl)benzoyl]-6-azaspiro[2.5]octan-2-yl]methyl]furo[2,3-c]pyridine-2-carboxamide] | –
33 | 13.8 | Cc1nccn1Cc1ccc(C(=O)N2CCC3(CC2)CC3CNC(=O)c2cc3ccncc3o2)cc1 (stereo not shown) [Example 246, N-[[6-[4-[(2-methylimidazol-1-yl)methyl]benzoyl]-6-azaspiro[2.5]octan-2-yl]methyl]furo[2,3-c]pyridine-2-carboxamide] | –
34 | 2000 | O=C(NCC1CC12CCN(C(=O)c1ccc(OC(F)(F)F)cc1)CC2)c1cc2ccncc2o1 (stereo not shown) [Example 247, N-[[6-[4-(trifluoromethoxy)benzoyl]-6-azaspiro[2.5]octan-2-yl]methyl]furo[2,3-c]pyridine-2-carboxamide] | –
